Data from US20260325661A1, “ANTIBODY-CONJUGATED IMMUNO-ACTIVATING SMALL MOLECULE COMPOUND, AND USE” (SHENZHEN CONJUGENIX PHARMACEUTICAL TECHNOLOGY CO., LTD, priority 2023, published 2026).

Test system: MC38-hPD-L1 cells
Experiment: Tumor inhibition assay in mice bearing MC38-hPD-L1 colon cancer
Assay type: in vivo, mouse
Conditions: PD-L1 antibody 3 mg/kg, intraperitoneal, Day 8 and Day 12 after inoculation
Experimental: MC38-hPD-L1 cells (a humanized MC38 colon cancer cell line expressing human PD-L1 protein, Shanghai Model Organisms Center, Inc.) in the logarithmic phase were collected by digestion and centrifugation, and washed with PBS twice before counting, and the cell concentration was adjusted to 2.3×10^5 cells/mL. The mice were 6-week-old SPF-grade humanized C57BL/6 mice. The right back of the mice was shaved completely with a shaver, and 100 μL of the cell suspension was aspirated with a syringe and injected subcutaneously into the back of the mice after removing bubbles. When the tumor diameter reached 4-5 mm, administration was started.
Assessment of therapeutic effect on tumor-bearing mice and antitumor effect of the compounds: tumor-bearing mice (BALB/c) were randomly divided into control group, Atezolizumab antibody group (PD-L1 antibody group), and PD-L1-KX conjugate group (Atezolizumab-conjugated compound KX) (5 mice per group). […] The tumor was measured with a vernier caliper and the survival of the mice was recorded every three days at the beginning of administration and after administration. The tumor volume was calculated by the following method: 0.5×a×b^2, wherein a is the long-axis diameter and b is the short-axis diameter. […]

Atezolizumab: PD-L1 antibody purchased from MedChemExpress (Atezolizumab, CAS number: 1380723-44-3)
tumor volume inhibition rate (Atezolizumab as control): 67%
